# Data as given in patent US8106055B2, “Substituted amide compounds” (Gruenenthal GmbH, priority 2007, dated 2012).
# Target: T1, human bradykinin 1 receptor (B1R) (Homo sapiens, UniProt P46663)
# T1 construct: expressed in transfected cells; host or cells: CHO K1 cells
# T1 sequence (P46663 1-353): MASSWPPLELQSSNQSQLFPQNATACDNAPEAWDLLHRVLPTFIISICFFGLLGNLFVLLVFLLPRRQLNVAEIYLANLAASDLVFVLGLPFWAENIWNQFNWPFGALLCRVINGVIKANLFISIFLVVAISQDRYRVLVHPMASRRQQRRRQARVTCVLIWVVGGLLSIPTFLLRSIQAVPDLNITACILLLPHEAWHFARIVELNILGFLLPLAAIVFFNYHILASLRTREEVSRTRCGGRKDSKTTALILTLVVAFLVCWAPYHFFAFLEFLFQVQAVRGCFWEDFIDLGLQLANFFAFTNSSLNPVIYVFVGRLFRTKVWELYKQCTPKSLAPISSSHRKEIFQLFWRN
# Test: Functional investigation on the human bradykinin 1 receptor (B1R), Ca2+ FLIPR assay in CHO K1 hB1R cells
# Format: cell-based
# Details: CHO-K1, B1R antagonism human; test substance 10 μM; Ca2+ FLIPR, CHO K1 hB1R cells; read-out: B1R Ant. h [10 μM] % Inhibition
# Outline: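 Peak Ca2+-dependent fluorescence in B1R-transfected CHO K1 cells measures antagonism of an EC80 agonist challenge given 10-20 min after compound. Agonist is Lys-Des-Arg9-bradykinin for human, Des-Arg9-bradykinin for rat receptor.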
row,SMILES,inhibition at 10 µM
1,"COc1cc(C)c(S(=O)(=O)N2CCC(OCC(=O)NC3CCC(C(c4cccs4)N(C)C)CC3)CC2)c(C)c1C (stereo not drawn) [Example 1, N-(4-((dimethylamino)(thiophen-2-yl)methyl)cyclohexyl)-2-(1-(4-methoxy-2,3,6-trimethylphenylsulfonyl)piperidin-4-yloxy)acetamide]",46%
2,"Cc1ccc(S(=O)(=O)N(C)CCOCC(=O)NCC2CCC(C(c3cccs3)N(C)C)CC2)cc1 (stereo not drawn) [Example 4, N-((4-((dimethylamino)(thiophen-2-yl)methyl)cyclohexyl)methyl)-2-(2-(N,4-dimethylphenylsulfonamido)ethoxy)acetamide]",2%
3,"COc1cc(C)c(S(=O)(=O)N2CCC(CCOCC(=O)NC3CCC(C(c4cccs4)N(C)C)CC3)CC2)c(C)c1C (stereo not drawn) [Example 5, N-(4-((dimethylamino)(thiophen-2-yl)methyl)cyclohexyl)-2-(2-(1-(4-methoxy-2,3,6-trimethylphenylsulfonyl)piperidin-4-yl)ethoxy)acetamide]",24%
4,"CN(C)C(c1ccccc1)C1CCC(NC(=O)COCCN(C)S(=O)(=O)c2c(Cl)cc(Cl)cc2Cl)CC1 (stereo not drawn) [Example 34, N-(4-((dimethylamino)(phenyl)methyl)cyclohexyl)-2-(2-(2,4,6-trichloro-N-methylphenylsulfonamido)ethoxy)acetamide]",102%
5,"COc1cc(C)c(S(=O)(=O)N(C)CCOCC(=O)NCC2CCC(C(c3cccs3)N(C)C)CC2)c(C)c1C (stereo not drawn) [Example 35, N-((4-((dimethylamino)(thiophen-2-yl)methyl)cyclohexyl)methyl)-2-(2-(4-methoxy-N,2,3,6-tetramethylphenylsulfonamido)ethoxy)acetamide]",50%
6,"CN(C)C(c1cccs1)C1CCC(CNC(=O)COC2CCN(S(=O)(=O)c3ccccc3)C2)CC1 (stereo not drawn) [Example 36, N-((4-((dimethylamino)(thiophen-2-yl)methyl)cyclohexyl)methyl)-2-(1-(phenylsulfonyl)pyrrolidin-3-yloxy)acetamide]",-11%
7,"CN(C)C(c1cccs1)C1CCC(CCNC(=O)COCCN(C)S(=O)(=O)c2ccc(Cl)cc2)CC1 (stereo not drawn) [Example 37, 2-(2-(4-chloro-N-methylphenylsulfonamido)ethoxy)-N-(2-(4-((dimethylamino)(thiophen-2-yl)methyl)cyclohexyl)ethyl)acetamide]",40%
8,"COc1ccc(S(=O)(=O)N2Cc3ccccc3CC2COCC(=O)NC2CCC(C(c3ccccc3)N(C)C)CC2)cc1 (stereo not drawn) [Example 38, N-(4-((dimethylamino)(phenyl)methyl)cyclohexyl)-2-((2-(4-methoxyphenylsulfonyl)-1,2,3,4-tetrahydroisoquinolin-3-yl)methoxy)acetamide]",45%
9,"CN(C)C(c1ccccc1)C1CCC(NC(=O)COC2CCCCC2N(C)S(=O)(=O)c2ccc(Cl)c(Cl)c2)CC1 (stereo not drawn) [Example 39, 2-(2-(3,4-dichloro-N-methylphenylsulfonamido)cyclohexyloxy)-N-(4-((dimethylamino)(phenyl)methyl)cyclohexyl)acetamide]",89%
10,"CN(C)C(c1cccc(F)c1)C1CCC(CCNC(=O)COCCN(C)S(=O)(=O)c2c(Cl)cccc2Cl)CC1 (stereo not drawn) [Example 41, 2-(2-(2,6-dichloro-N-methylphenylsulfonamido)ethoxy)-N-(2-(4-((dimethylamino)(3-fluorophenyl)methyl)cyclohexyl)ethyl)acetamide]",91%
11,"COc1cc(C)c(S(=O)(=O)N2CCC(OCC(=O)NC3CCC(C(c4cccs4)N(C)C)CC3)C2)c(C)c1C (stereo not drawn) [Example 43, N-(4-((dimethylamino)(thiophen-2-yl)methyl)cyclohexyl)-2-(1-(4-methoxy-2,3,6-trimethylphenylsulfonyl)pyrrolidin-3-yloxy)acetamide]",37%
12,"COc1cc(C)c(S(=O)(=O)N2CCC(OCC(=O)NCC3CCC(C(c4ccccc4)N(C)C)CC3)C2)c(C)c1C (stereo not drawn) [Example 44, N-((4-((dimethylamino)(phenyl)methyl)cyclohexyl)methyl)-2-(1-(4-methoxy-2,3,6-trimethylphenylsulfonyl)pyrrolidin-3-yloxy)acetamide]",46%
13,"COc1ccc(S(=O)(=O)N2CCCCC2COCC(=O)NCC2CCC(C(c3cccs3)N(C)C)CC2)cc1 (stereo not drawn) [Example 45, N-((4-((dimethylamino)(thiophen-2-yl)methyl)cyclohexyl)methyl)-2-((1-(4-methoxyphenylsulfonyl)piperidin-2-yl)methoxy)acetamide]",70%
14,"COc1ccc(S(=O)(=O)N2CCCCC2CCOCC(=O)NCCC2CCC(C(c3cccs3)N(C)C)CC2)cc1 (stereo not drawn) [Example 46, N-(2-(4-((dimethylamino)(thiophen-2-yl)methyl)cyclohexyl)ethyl)-2-(2-(1-(4-methoxyphenylsulfonyl)piperidin-2-yl)ethoxy)acetamide]",86%
15,"COc1ccc(S(=O)(=O)N2Cc3ccccc3CC2COCC(=O)NC2CCC(C(c3cccs3)N(C)C)CC2)cc1 (stereo not drawn) [Example 47, N-(4-((dimethylamino)(thiophen-2-yl)methyl)cyclohexyl)-2-((2-(4-methoxyphenylsulfonyl)-1,2,3,4-tetrahydroisoquinolin-3-yl)methoxy)acetamide]",24%
16,"COc1ccc(S(=O)(=O)N2Cc3ccccc3CC2COCC(=O)NCCC2CCC(C(c3cccs3)N(C)C)CC2)cc1 (stereo not drawn) [Example 48, N-(2-(4-((dimethylamino)(thiophen-2-yl)methyl)cyclohexyl)ethyl)-2-((2-(4-methoxyphenylsulfonyl)-1,2,3,4-tetrahydroisoquinolin-3-yl)methoxy)acetamide]",33%
17,"COc1ccc(S(=O)(=O)N2CCCCC2COCC(=O)NCC2CCC(C(c3cccs3)N(C)C)CC2)c(OC)c1 (stereo not drawn) [Example 49, 2-((1-(2,4-dimethoxyphenylsulfonyl)piperidin-2-yl)methoxy)-N-((4-((dimethylamino)(thiophen-2-yl)methyl)cyclohexyl)methyl)acetamide]",2%
18,"COc1cc(C)c(S(=O)(=O)N(C)CCOCC(=O)NCCC2CCC(C(c3cccs3)N(C)C)CC2)c(C)c1C (stereo not drawn) [Example 52, N-(2-(4-((dimethylamino)(thiophen-2-yl)methyl)cyclohexyl)ethyl)-2-(2-(4-methoxy-N,2,3,6-tetramethylphenylsulfonamido)ethoxy)acetamide]",103%
19,"CN(C)C(c1ccccc1)C1CCC(CNC(=O)COCCN(C)S(=O)(=O)c2ccc(OC(F)(F)F)cc2)CC1 (stereo not drawn) [Example 53, N-((4-((dimethylamino)(phenyl)methyl)cyclohexyl)methyl)-2-(2-(N-methyl-4-(trifluoromethoxy)phenylsulfonamido)ethoxy)acetamide]",19%
20,"CN(C)C(c1cccs1)C1CCC(CNC(=O)COC2CCN(S(=O)(=O)c3ccc(Cl)cc3)C2)CC1 (stereo not drawn) [Example 54, 2-(1-(4-chlorophenylsulfonyl)pyrrolidin-3-yloxy)-N-((4-((dimethylamino)(thiophen-2-yl)methyl)cyclohexyl)methyl)acetamide]",10%
21,"CN(C)C(c1cccs1)C1CCC(CNC(=O)COCCN(C)S(=O)(=O)c2ccc(Cl)cc2)CC1 (stereo not drawn) [Example 55, 2-(2-(4-chloro-N-methylphenylsulfonamido)ethoxy)-N-((4-((dimethylamino)(thiophen-2-yl)methyl)cyclohexyl)methyl)acetamide]",11%
22,"Cc1cc(C)c(S(=O)(=O)N(C)CCOCC(=O)NCC2CCC(C(c3cccs3)N(C)C)CC2)c(C)c1 (stereo not drawn) [Example 57, N-((4-((dimethylamino)(thiophen-2-yl)methyl)cyclohexyl)methyl)-2-(2-(N,2,4,6-tetramethylphenylsulfonamido)ethoxy)acetamide]",82%
23,"COc1cc(C)c(S(=O)(=O)N2CCC(OCC(=O)NCC3CCC(C(c4cccs4)N(C)C)CC3)C2)c(C)c1C (stereo not drawn) [Example 58, N-((4-((dimethylamino)(thiophen-2-yl)methyl)cyclohexyl)methyl)-2-(1-(4-methoxy-2,3,6-trimethylphenylsulfonyl)pyrrolidin-3-yloxy)acetamide]",52%
24,"CCN(CCOCC(=O)NC1CCC(C(c2cccs2)N(C)C)CC1)S(=O)(=O)c1c(C)cc(OC)c(C)c1C (stereo not drawn) [Example 59, N-(4-((dimethylamino)(thiophen-2-yl)methyl)cyclohexyl)-2-(2-(N-ethyl-4-methoxy-2,3,6-trimethylphenylsulfonamido)ethoxy)acetamide]",56%
25,"COc1cc(C)c(S(=O)(=O)N2CCCC(OCC(=O)NCC3CCC(C(c4cccs4)N(C)C)CC3)C2)c(C)c1C (stereo not drawn) [Example 60, N-((4-((dimethylamino)(thiophen-2-yl)methyl)cyclohexyl)methyl)-2-(1-(4-methoxy-2,3,6-trimethylphenylsulfonyl)piperidin-3-yloxy)acetamide]",28%

# Same assay, conditions: CHO-K1, read-out: B1R Ant. h [10 μM] % Inhibition
row,SMILES,inhibition at 10 µM
1,"CN(C)C(c1cccs1)C1CCC(NC(=O)COC2CCCN(S(=O)(=O)c3ccccc3)C2)CC1 (stereo not drawn) [Example 42, N-(4-((dimethylamino)(thiophen-2-yl)methyl)cyclohexyl)-2-(1-(phenylsulfonyl)piperidin-3-yloxy)acetamide]",-14%
2,"CN(C)C(c1cccs1)C1CCC(CNC(=O)COCCN(C)S(=O)(=O)c2ccc(F)cc2)CC1 (stereo not drawn) [Example 56, N-((4-((dimethylamino)(thiophen-2-yl)methyl)cyclohexyl)methyl)-2-(2-(4-fluoro-N-methylphenylsulfonamido)ethoxy)acetamide]",22%
